The source of these data is paper PMC4634797, “New linear antiplasmodial peptides related to angiotensin II” (Malaria Journal, 2015).

Data set [1] has as its system uninfected human erythrocytes. The data set is classed as cell-based. How it is done: The haemolytic effect of analogs 5 and 6 was determined in uninfected erythrocytes. Cells were maintained in the same culture conditions in the presence of 10^−8 mol L^−1 peptides, for 24 h. Erythrocytes were centrifuged at 900g/8 min and free haemoglobin in the supernatant was assessed by spectrophotometer at 550 nm. Untreated cells were used as negative control to discount non-specific haemolysis. The haemolytic activity was expressed as percentage of the control. This positive control (100 % haemolysis) was prepared by treating the erythrocytes with distilled water.
The effects of the Ang II, peptides 5 and 6 in the erythrocyte human cells to define the haemolysis were seeded in a 96-well plate in the absence (control) or presence of 10^−8 mol L^−1 of the analogues, as already described.
Fig. 5 Haemolytic assay of human red blood cells were treated with distilled water; uninfected erythrocytes were kept in the same conditions used in the invasion assay with a control and each peptides tested (10^−8 mol L^−1), at 37 °C for 24 h. After incubation, the supernatant was collected, clarified at 900 g/8 min and the haemoglobin content was detected in a spectrophotometer at […]. Triple asterisk statistically significant compared with distilled water value p < 0.05.

Data set [2] has as its system non-infected human erythrocytes. The data set is classed as cell-based. How it is done: The MHC of the peptides were assessed through the measurement of haemoglobin released by non-infected human erythrocytes in the presence of increasing concentrations of the compounds in the same culture conditions of the invasion assay. As described by Jin-Jiang, MHC is the highest peptide concentration that causes no detectable release of haemoglobin.

Assay in data set [3]: not given
This is another data set of the same source.

Assay in data set [4]: not given
The source holds these as a separate data set.

Assay in data set [5]: not given
This is another data set of the same source.

In data set [6] the test system is Plasmodium falciparum W2 strain, erythrocytic cycle. The settings on record: read-out: IC50, suppression of erythrocytic invasion (rings formed) by P. falciparum; seven concentrations 10^−4 to 10^−14 mol L^−1, 24 h; non-linear regression, GraphPad Prism; n = 2.
Text: The erythrocytic cycle of Plasmodiumfalciparum was maintained in vitro by culturing W2 strains in 1640 medium, supplemented with A-type human blood and serum, as described in Saraiva et al. [6].
Sorbitol solution (5 %) was used to synchronize parasite cultures into the ring stage, according to Lambros and Vanderberg [18]. The resistant ring-forms are subsequently maintained in culture as described above. Erythrocytes infected by parasite mature forms at 2–3 % parasitaemia and 5 % haematocrit were kept in the presence or absence of 10^−8 mol L^−1 synthetic peptides, for 24 h. Invasion is assessed by the appearance of new ring forms. The percentage of invasion was determined by optical microscopy (1000× magnification). It represents the total number of cells infected by rings in 100 erythrocytes in at least ten random microscopic fields. The invasion assay was carried out using two different cell suspension and generated equivalent results
The IC50 values were calculated by using GraphPad Prism Software version 5.00 for Windows (GraphPad, San Diego, California, USA). Parameters: Nonlinear Regression; log (inhibitor) vs. response equation was chosen at least square (ordinary) fit method was applied. […]
Assay in data set [7]: not given
This is another data set of the same source.

Data set [8] deals with P. gallinaceum sporozoite. The settings on record: cited from earlier work; for biological (antiplasmodial) activity on P. gallinaceum sporozoites: Ala-replacement / deletion analogues and short peptides; for antiplasmodial activity against P. gallinaceum sporozoite: lactam bridged Ang II analogues. The text has this:
Chamlian et al. studied some lactam bridged Ang II analogues, which presented Asp and Lys insertion in order to restrict the peptide. […] They replaced each amino acid by Ala or deleted the residues of the native Ang II molecule. The biological activities of the analogues […]and […]on the P. gallinaceum sporozoites were equipotent to native Ang II [4], 75 and 79 % of activity, respectively.

For data set [9], the system named is P. falciparum red blood cells. To be noted: cited from earlier work. The text has this: Saraiva et al. described studies that aimed to identify the molecular mechanisms induced by Ang II, which are involved in the modulation of P. falciparum erythrocytic cycle. […] Torres et al. studied the influence of restrict peptides in P. falciparum red blood cells.
In data set [10] the test system is Plasmodium gallinaceum mature sporozoites. In words: Effect of the peptides on salivary gland-derived Plasmodium gallinaceum sporozoites (membrane permeability, propidium iodide fluorescence). The data set is classed as cell-based. To be noted: 60 μmol L^−1 peptide in PBS, 37 °C, 1 h, fluorescence microscopy, mean, n = 9. How it is done:
Nine-thousand P. gallinaceum mature sporozoites were recovered from the salivary glands of Ae. aegypti and incubated in 50 μL of the PBS solution, with 40 μmol L^−1 digitonin (positive control), 60 μmol L^−1 peptides or negative controls, at 37 °C for 1 h. Cell membrane integrity was then monitored using a Carl Zeiss inverted fluorescence microscope (model Observer Axio Vision A.1) coupled to an image capture Zeiss AxioCam HR digital camera (1300 × 1030 pixels resolution and 8-bit quantization) after addition of 1 μL of the propidium iodide aqueous solution (200 μmol L^−1) in 5 μL of total solution volume. Images were obtained using a 40× objective lens and a green filter effect in red. The spectral range was set with the excitation at 538 nm within the visible spectrum in order to produce orange-red fluorescence centered at 619 nm, which was processed using the Axio 4.7 software.
The effect of the peptides on sporozoites was determined in vitro by fluorescence microscopy after one hour of incubation of the parasites with each peptide in the presence of propidium iodide (see Additional file 1). The results are reported as the per cent of fluorescent sporozoites. The analyses were carried out in triplicate using three different mosquito batches and a total of nine experiments were performed (n = 9). The effects of the peptides on P. gallinaceum sporozoites in vitro assay presented 64–94 % activity.
Fig. 2 Effects of peptides on membrane permeability expressed as the per cent of fluorescent mature sporozoites (mean ± standard deviation, n = 9). […] Positive control group (+): digitonin/PBS; negative control group (−): PBS.
Nine-thousand P. gallinaceum mature sporozoites were recovered from the salivary glands of Ae. aegypti and incubated in 50 µL of the PBS solution, with 40 μmol L^–1 digitonin (positive control), 60 μmol L^–1 peptides or negative controls, at 37 °C for one hour. Cell membrane integrity was then monitored using a Carl Zeiss inverted fluorescence microscope (model Observer Axio Vision A.1) coupled to an image capture Zeiss AxioCam HR digital camera (1,300 x 1,030 pixels resolution and 8-bit quantization) after addition of 1 µL of the propidium iodide aqueous solution (200 µmol L^–1) in 5 μL of total solution volume. Images were obtained using a 40X objective lens and a green filter effect in red. The spectral range was set with the excitation at 538 nm within the visible spectrum in order to produce orange-red fluorescence centered at 619 nm, which was processed using the Axio 4.7 software.

Several values for one entry are separate records, joined by “and”; a condition that tells them apart may be missing. Equal entries are not always repeated. Ends that are not written are not given here. Peptide text beside a SMILES is read from it.

A word on the IC50: it is the concentration that gives 50% inhibition.

Regarding `CC[C@H](C)[C@H](NC(=O)[C@H](Cc1ccc(O)cc1)NC(=O)[C@@H](NC(=O)[C@H](CCCNC(=N)N)NC(=O)[C@@H](N)CC(=O)O)C(C)C)C(=O)N[C@@H](Cc1cnc[nH]1)C(=O)N1CCC[C@H]1C(=O)N[C@@H](Cc1ccccc1)C(=O)O` [Ang II, angiotensin II], the “haemolytic activity (% of distilled water control)” value in data set [1] is “did not present hemolytic effects”. Moreover, the MHC in data set [2] is reported as 10^−5 M.

Take `N[C@@H](Cc1ccc(O)cc1)C(=O)N[C@@H](Cc1c[nH]cn1)C(=O)N1CCC[C@H]1C(=O)N[C@@H](Cc1ccccc1)C(=O)O` [Peptide 5, des-Asp^1,Arg^2,Val^3,Ile^5-AII] (H-YHPF-OH): the secondary conformation α-helix is 9.7% (2×) and 9.6%. In addition, in [3], the secondary conformation β-turn was determined as 25.7%. For the same compound, in data set [4], the secondary conformation parallel is 12.1% and 13.4%. In [5], the secondary conformation random coil was 40.6% and 44.3% and 40.4%. Besides, the IC50 in [6] came to 0.89 nM. Moreover, the secondary conformation antiparallel in data set [7] is 12% and 13.9%. Further, in [2], the MHC is reported as 10^−5 M.

Turning to `CC[C@H](C)[C@H](NC(=O)[C@@H](N)C(C)C)C(=O)N1CCC[C@H]1C(=O)N[C@@H](Cc1ccccc1)C(=O)O` [Peptide 6, des-Asp^1,Arg^2,Tyr^4,His^6-AII] (H-VIPF-OH), the secondary conformation α-helix is 9.6% and 9.7% (2×). This compound displayed a secondary conformation β-turn in data set [3] of 21.7%. Also, the secondary conformation parallel in data set [4] stood at 13%. The compound further gave a secondary conformation random coil in [5] of 40.4%. For the same compound, in data set [6], the IC50 amounted to 0.62 nM. Besides, the MHC in [2] was 10^−6 M.

With “Arg-Val-Tyr-Ile-His-Pro-Phe [deletion analogue of Ang II, Ferreira et al]”, the “biological (antiplasmodial) activity on P. gallinaceum sporozoites” value (from here on “biological … on P. gallinaceum sporozoites”) in data set [8] is “about 50%”.

For “Asp-Arg-Val-Tyr-Ile-His-Pro [deletion analogue of Ang II, Ferreira et al]”, in [8], the “biological … on P. gallinaceum sporozoites” value is “about 50%”.

Regarding “CRDCVYIHPF (cysteine pairing not given here) [restrict peptide of Torres et al]”, in [9], the “reduction of the parasitaemia by restrict peptides” value is reported as “active in two different parasite species”.

Take “DRVYAHPF [Ala-replacement Ang II analogue from earlier work]”: in [8], the “biological … on P. gallinaceum sporozoites” value is 75%.

On to “DRVYDIHKPF (also: sidechain bridge or staple (positions not given here)) [VC-26, lactam bridged Ang II analogue of Chamlian et al]”, for which, in data set [8], the “antiplasmodial activity against P. gallinaceum sporozoite” value is listed as 73%.

On to DRVYHIPF [Peptide 1, [Ile^6,His^5]-AII], for which the “per cent of fluorescent mature sporozoites (Spz Fluorescence, antiplasmodial activity)” value (shortened to “per cent”) in [10] was found to be 94%.

For the compound “DRVYIAPF [Ala-replacement Ang II analogue from earlier work]”, the “biological … on P. gallinaceum sporozoites” value in data set [8] is given as 79%.

Consider “DRVYIDHKPF (also: sidechain bridge or staple (positions not given here)) [VC-12, lactam bridged Ang II analogue of Chamlian et al]”, for which, in data set [8], the “antiplasmodial activity against P. gallinaceum sporozoite” value is 87%.

For the compound DRVYPF [Peptide 2, des-Ile^5,His^6-AII], the “per cent” value in data set [10] was found to be 64%.

For “Ile-His-Pro-Phe [short peptide, Ferreira et al]”, the “biological … on P. gallinaceum sporozoites” value in [8] is “about 80%”.

As to “RYHIPF [Peptide 4, [Ile^4,His^3]-des-Asp^1,Val^3-AII]”, in data set [10], the “per cent” value was determined as 77%.

Turning to “Val-Tyr-Ile-His-Pro [short peptide, Ferreira et al]”, the “biological … on P. gallinaceum sporozoites” value in [8] is given as “about 80%”.

For “Val-Tyr-Ile-His-Pro-Phe (VYIHPF; printed: Val-Tyr-Ile-His-Pro-Phe) [short peptide, Ferreira et al]”, the “biological … on P. gallinaceum sporozoites” value in data set [8] was “about 80%”.

Consider “[2-Nal^3]- des-Asp^1,Arg^2,Tyr^4,His^6-AII [Peptide 9]”, for which, in [10], the “per cent” value was 70%.

For the compound “[2-Nal^4]- des-Asp^1,Arg^2,Tyr^4,His^6-AII [Peptide 10]”, the “per cent” value in data set [10] is 73%.
